In brackets after ≈: the same amount, converted by molar mass. Read-outs that look alike come from different tables or passages of the source. Numbered stars: 1 amine (or outer) side, 2 acyl side, 3 side chain; on linkers, the order of the positions; unused ones are H or OH. Square brackets hold non-standard residues; d marks the D form. Peptide text beside a SMILES is read from it. X3 = CN1CCN(c2ccc(-c3cccc(C[C@@H](C(=O)[*:2])N(C)[*:1])c3)cn2)CC1; X11 = CN([C@@H](Cc1cccc(-c2cccc3ncccc23)c1)C(=O)[*:2])[*:1]; X22 = CN([C@@H](Cc1cccc(-c2cncc3ccccc23)c1)C(=O)[*:2])[*:1]; Hmp(2R,3S) = CC[C@H](C)[C@@H](O)C(=O)O; NMeVal(β-OH) = CN[C@H](C(=O)O)C(C)(C)O; NMeV = CN[C@H](C(=O)O)C(C)C
Key:
[1] = tested on: C. albicans MMX 2000 ATCC 10231; experiment: MIC assay (CLSI microdilution); assay type: cell-based; details: Candida albicans, ATCC10231, RPMI plus 0.002% Tween-80; read-out: MIC
[2] = tested on: C. neoformans MMX 0634 ATCC 90112; experiment: MIC assay (CLSI microdilution); assay type: cell-based; details: Cryptococcus neoformans, read-out: MIC
[3] = tested on: C. parapsilosis MMX 2323 ATCC 22019; experiment: MIC assay (CLSI microdilution); assay type: cell-based, Candida parapsilosis
Procedure, shortened: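 Broth microdilution MIC testing of Candida parapsilosis ATCC 22019 followed CLSI methods in RPMI-1640, with or without 0.002% Tween-80. Yeast grown 48 hours at 35° C on Sabouraud dextrose agar was suspended to a 0.5 McFarland standard and diluted 1:100 to roughly 0.5-2.5×10^3 CFU/mL. The MIC was the lowest concentration preventing visible growth.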

A. flavus MMX 5948 = experiment: MIC/MEC assay (CLSI microdilution); assay type: cell-based; details: Aspergillus flavus, MMX5948, 48 h
Procedure, shortened: (§1)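 Test agents were assayed by CLSI broth microdilution in Tween-80-supplemented (0.002%) RPMI-1640 against spore inocula of approximately 0.2-2.5×10^4 CFU/mL. Strain MMX 5280 was run both with and without Tween-80.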

A. fumigatus MMX 5944 = experiment: MIC/MEC assay (CLSI microdilution); assay type: cell-based; details: Aspergillus fumigatus, MMX5944, 48 h; for minimal effective concentration: RPMI plus 0.002% Tween-80; for MIC: RPMI plus 0.002% Tween-80, read-out: MIC
Procedure, shortened: as §1

[4] = tested on: A. fumigatus MMX 6781 ATCC MYA-4609; experiment: MIC/MEC assay (CLSI microdilution); assay type: cell-based; details: Aspergillus fumigatus; for MIC: 48 h, RPMI plus 0.002% Tween-80, read-out: MIC; for minimal effective concentration: RPMI plus 0.002% Tween-80, 48 hr
Procedure, shortened: as §1

[5] = tested on: A. fumigatus MMX 6782 ATCC 13073; experiment: MIC/MEC assay (CLSI microdilution); assay type: cell-based; details: Aspergillus fumigatus, ATCC13073, 48 h
Procedure, shortened: as §1

[6] = tested on: A. fumigatus from Aureogen; experiment: MIC/MEC assay (CLSI microdilution); assay type: cell-based; details: Aspergillus fumigatus, 48 h; for minimal effective concentration: RPMI plus 0.002% Tween-80; for MIC: RPMI plus 0.002% Tween-80, read-out: MIC
Procedure, shortened: as §1

[7] = tested on: A. niger MMX 0624 ATCC 16888; experiment: MIC/MEC assay (CLSI microdilution); assay type: cell-based; details: Aspergillus niger, ATCC16888, 48 h
Procedure, shortened: as §1

[8] = tested on: A. fumigatus MMX 5280 ATCC MYA-3626; experiment: MIC/MEC assay (CLSI microdilution); assay type: cell-based, Aspergillus fumigatus
Procedure, shortened: as §1

[9] = tested on: C. albicans MMX 2000 ATCC 10231; experiment: MIC assay (CLSI microdilution); assay type: cell-based; details: Candida albicans
[10] = ATCC90112, RPMI plus 0.002% Tween-80
[11] = ATCC22019, RPMI plus 0.002% Tween-80, read-out: MIC
[12] = ATCC22019, Without Tween-80, read-out: MIC
[13] = RPMI plus 0.002% Tween-80, read-out: MIC
[14] = RPMI plus 0.002% Tween-80, read-out: MEC
[15] = Aspergillus fumigatus, 48 h, RPMI plus 0.002% Tween-80, read-out: MEC
[16] = Aspergillus fumigatus, 48 h, RPMI plus 0.002% Tween-80, read-out: MIC
[17] = Aspergillus fumigatus, 48 h, Without Tween-80, read-out: MEC
[18] = Aspergillus fumigatus, 48 h, Without Tween-80, read-out: MIC
[19] = read-out: MEC, RPMI plus 0.002% Tween-80

| MIC [1] | MIC [2, 10] | MIC [3, 11] | MIC [3, 12] | MIC (A. flavus MMX 5948; [13]) | MIC (A. fumigatus MMX 5944) | MIC [4] | MIC [5, 13] | MIC [6] | MIC [7, 13] | MIC [8, 16] | MIC [8, 18] | Structure (SMILES) | minimal effective concentration (A. flavus MMX 5948; RPMI plus 0.002% Tween-80) | minimal effective concentration (A. fumigatus MMX 5944) | minimal effective concentration [4] | minimal effective concentration [6] | minimal effective concentration [7, 14] | minimal effective concentration [8, 15] | minimal effective concentration [8, 17] | MIC ([8]; Without Tween-80, 48 hr) | further results |
| --- | --- | --- | --- | --- | --- | --- | --- | --- | --- | --- | --- | --- | --- | --- | --- | --- | --- | --- | --- | --- | --- |
| 0.008 µg/mL | 0.03 µg/mL | 0.03 µg/mL | 1 µg/mL (≈ 0.783 µM) | 0.015 µg/mL | 0.12 µg/mL | 0.12 µg/mL | 0.12 µg/mL | 0.12 µg/mL | 0.015 µg/mL | 0.25 µg/mL | 1 µg/mL (≈ 0.783 µM) | CC[C@H](C)[C@@H]1NC(=O)[C@@H]2CCCN2C(=O)[C@H](Cc2cccc(-c3ccc(N4CCN(C)CC4)nc3)c2)N(C)C(=O)[C@H](Cc2ccccc2)NC(=O)[C@H](C(C)C)N(C)C(=O)[C@@H]([C@@H](C)CC)OC(=O)[C@H](C(C)(C)O)N(C)C(=O)[C@H](CC(C)C)NC(=O)[C@H](C(C)C)N(C)C1=O [Compound 20] (cyclo(F[X3]PI[NMeV]L[NMeVal(β-OH)][Hmp(2R,3S)][NMeV])) | 0.008 µg/mL | 0.015 µg/mL | 0.06 µg/mL | 0.03 µg/mL | 0.008 µg/mL | 0.06 µg/mL | 0.5 µg/mL | 2 µg/mL (≈ 1.57 µM) | MIC ([2]; ATCC90112, 72 h, 72 hour, RPMI plus 0.002% Tween-80): 0.12 µg/mL; MIC ([3]; Without Tween-80): 2 µg/mL (≈ 1.57 µM); minimal effective concentration [5, 14]: 0.03 µg/mL; MEC ([8]; Without Tween-80, 48 hr): 1 µg/mL; MIC ([9]; ATCC10231, Without Tween-80, read-out: MIC): 0.5 µg/mL (≈ 0.392 µM) |
| – | – | – | – | – | – | – | – | – | – | – | – | CC[C@H](C)[C@@H]1NC(=O)[C@@H]2CCCN2C(=O)[C@H](Cc2cccc(-c3cccc4ncccc34)c2)N(C)C(=O)[C@H](Cc2ccccc2)NC(=O)[C@H](C(C)C)N(C)C(=O)[C@@H]([C@@H](C)CC)OC(=O)[C@H](C(C)(C)O)N(C)C(=O)[C@H](CC(C)C)NC(=O)[C@H](C(C)C)N(C)C1=O [Compound 28] (cyclo(F[X11]PI[NMeV]L[NMeVal(β-OH)][Hmp(2R,3S)][NMeV])) | – | – | – | – | – | – | – | >64/>64 μg/mL | MIC ([3]; ATCC22019, RPMI plus 0.002% Tween-80): 0.06 µg/mL; MIC ([3]; ATCC22019, Without Tween-80): 0.5 µg/mL (≈ 0.407 µM); MIC (A. flavus MMX 5948; RPMI plus 0.002% Tween-80): > 64 µg/mL; MIC ([5]; RPMI plus 0.002% Tween-80): > 64 µg/mL; minimal effective concentration [5, 19]: > 64 µg/mL; MIC ([7]; RPMI plus 0.002% Tween-80): 0.12 µg/mL; minimal effective concentration [7, 19]: 0.12 µg/mL; minimal effective concentration ([8]; Aspergillus fumigatus, 48 h, read-out: MEC, RPMI plus 0.002% Tween-80): > 64 µg/mL; minimal effective concentration ([8]; Aspergillus fumigatus, 48 h, read-out: MEC, Without Tween-80): > 64 µg/mL; MIC ([9]; ATCC10231, RPMI plus 0.002% Tween-80): 0.015 µg/mL |
| 0.008 µg/mL | 0.06 µg/mL | 0.06 µg/mL | 1 µg/mL (≈ 0.814 µM) | > 64 µg/mL | > 64 µg/mL | > 64 µg/mL | > 64 µg/mL | > 64 µg/mL | 0.12 µg/mL | > 64 µg/mL | > 64 µg/mL | CC[C@H](C)[C@@H]1NC(=O)[C@@H]2CCCN2C(=O)[C@H](Cc2cccc(-c3cncc4ccccc34)c2)N(C)C(=O)[C@H](Cc2ccccc2)NC(=O)[C@H](C(C)C)N(C)C(=O)[C@@H]([C@@H](C)CC)OC(=O)[C@H](C(C)(C)O)N(C)C(=O)[C@H](CC(C)C)NC(=O)[C@H](C(C)C)N(C)C1=O [Compound 29] (cyclo(F[X22]PI[NMeV]L[NMeVal(β-OH)][Hmp(2R,3S)][NMeV])) | > 64 µg/mL | > 64 µg/mL | > 64 µg/mL | > 64 µg/mL | 0.12 µg/mL | > 64 µg/mL | > 64 µg/mL | – | – |
